Consider 17 molecules from PubChem BioAssay (NCI).

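Values below derive from 48-hour exposures of cells grown in 96-well plates, with endpoints linearly interpolated between the two concentrations bracketing the appropriate inhibition level. GI50: concentration for 50% inhibition of growth. The concentration for full growth arrest is given as TGI.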

Some test systems named below: HOP-92 NSCLC; NCI-H522 lung; OVCAR-4 ovarian; SF-268 CNS; SK-MEL-28 melanoma; SW-620 colon; UACC-62 melanoma; ACHN renal; HCT-116 colon; SF-539 CNS.
Common to all, as to assay: NCI-60 cell line screen, 48 h

`COC1=CC(=O)C(Br)=CC1=O`: the TGI came out at 29.8 µM in the assay with HOP-92 NSCLC; 23.9 µM in the assay with NCI-H522 lung; 32.1 µM in the assay with OVCAR-4 ovarian; 33.8 µM in the assay with SF-268 CNS; 34 µM in the assay with SK-MEL-28 melanoma; 54.9 µM in the assay on SW-620 colon. Also, the TGI in the assay on UACC-62 melanoma was determined as 32.1 µM.

On to `CC(=Nc1ccccc1)C1=C(O)C(Cc2cccc(F)c2)NC1=O` (stereo unspecified), for which the GI50 with ACHN renal is 0.0694 µM; in the assay with HCT-116 colon, 0.047 µM; in the assay on HOP-92 NSCLC it was 0.0242 µM; with NCI-H522 lung it was 0.0286 µM; in the assay on OVCAR-4 ovarian, 0.345 µM; in the assay with SF-268 CNS it was 0.071 µM. For the same molecule, the GI50 in the assay with SF-539 CNS was 0.0374 µM; in the assay on SW-620 colon it was 0.0419 µM; in the assay with UACC-62 melanoma, 0.0546 µM. Also, the TGI with ACHN renal is greater than 100 µM; in the assay with HCT-116 colon, greater than 39.4 µM; in the assay with HOP-92 NSCLC, greater than 21.1 µM; with NCI-H522 lung, 0.182 µM; with OVCAR-4 ovarian, greater than 100 µM; with SF-268 CNS, greater than 100 µM. For the same molecule, the TGI in the assay on SW-620 colon and in the assay with UACC-62 melanoma was greater than 100 µM throughout.

Consider `Cc1c(NC(=O)CCl)c(=O)oc2c(C)c3occc(=O)c3cc12`, for which the TGI in the assay with ACHN renal came to 80.5 µM; in the assay on HCT-116 colon, 25.9 µM; in the assay on HOP-92 NSCLC it was 27.5 µM; in the assay with OVCAR-4 ovarian, 25.6 µM; in the assay on SF-268 CNS it was 25.9 µM; in the assay with SK-MEL-28 melanoma, 39.2 µM. Besides, the TGI in the assay on SW-620 colon stood at 30.6 µM.

Consider `O=C(O)CNc1ccc(Cl)c(Cl)c1`, for which the TGI was 53 µM in the assay with ACHN renal; 44.7 µM with HCT-116 colon; 51.6 µM with HOP-92 NSCLC; 38 µM with NCI-H522 lung; greater than 100 µM in the assay with OVCAR-4 ovarian; greater than 100 µM in the assay on SF-268 CNS. Further, the TGI in the assay on SF-539 CNS was greater than 100 µM; in the assay on SW-620 colon, 73.9 µM; with UACC-62 melanoma, 90.4 µM.

In the case of `O=C1CSC(c2ccc(-c3nc4ccccc4[nH]3)cc2)=N1`, the GI50 with ACHN renal was 24.7 µM; with HCT-116 colon it was 18.6 µM; in the assay with HOP-92 NSCLC it was greater than 50 µM; with NCI-H522 lung it was 37.3 µM; in the assay with SF-268 CNS it was 22.4 µM; in the assay with SF-539 CNS, 12.2 µM. In addition, the GI50 with SW-620 colon was greater than 50 µM; with UACC-62 melanoma, 12.5 µM. The TGI in the assay on ACHN renal was greater than 50 µM; with HCT-116 colon, greater than 50 µM; with HOP-92 NSCLC, greater than 50 µM; in the assay on NCI-H522 lung it was greater than 50 µM; in the assay with SF-268 CNS it was greater than 50 µM; in the assay with SF-539 CNS, 42.1 µM. In addition, the TGI in the assay with SW-620 colon and with UACC-62 melanoma was greater than 50 µM in each case.

As to `CCOc1cc(C(=O)O)c2c(ccc3ccc(OC)c(OC)c32)c1OC`, the TGI in the assay on ACHN renal, in the assay on HCT-116 colon, in the assay with HOP-92 NSCLC, with NCI-H522 lung, in the assay on OVCAR-4 ovarian and in the assay on SF-268 CNS was greater than 100 µM each time. For the same molecule, the TGI with SK-MEL-28 melanoma, with SW-620 colon and with UACC-62 melanoma was greater than 100 µM throughout.

As to `CN(C)CCNC(=O)c1cccc2nc3ccc4cccnc4c3nc12`, the TGI with ACHN renal came out at 3.27 µM; in the assay on HCT-116 colon, 2.43 µM; in the assay with HOP-92 NSCLC it was 1.99 µM; in the assay on OVCAR-4 ovarian it was 3.21 µM; with SF-268 CNS it was 3.13 µM; in the assay on SF-539 CNS it was 1.1 µM. In addition, the figures for the TGI in the assay on SK-MEL-28 melanoma, in the assay on SW-620 colon and in the assay on UACC-62 melanoma were 2.28 µM, 4.92 µM and 1.54 µM, respectively.

As for `COc1cccc2c1C(=O)c1c(O)c3c(c(O)c1C2=O)C[C@@](O)(C(C)=O)C[C@@H]3OC1CC([N+]([O-])(Cc2ccccc2)Cc2ccccc2)C(O)C(C)O1` (stereo partly specified), the TGI was 2.73 µM in the assay on ACHN renal; 3.14 µM in the assay on HOP-92 NSCLC; 2.68 µM in the assay with NCI-H522 lung; 4.17 µM in the assay with OVCAR-4 ovarian; 2.62 µM in the assay on SF-539 CNS; 2.54 µM with SW-620 colon. The molecule also gave a TGI in the assay on UACC-62 melanoma of 2.83 µM.

As to `NCCOCn1cc(Cc2cccc(OCc3ccccc3)c2)c(=O)[nH]c1=O`, the TGI with HCT-116 colon, in the assay with HOP-92 NSCLC, in the assay with OVCAR-4 ovarian, in the assay with SF-539 CNS, with SK-MEL-28 melanoma and in the assay with SW-620 colon was greater than 100 µM in each case. For the same molecule, in the assay with UACC-62 melanoma, the TGI was greater than 100 µM.

`COc1cccc(OC(=O)c2ccc(C(F)(F)F)nc2Nc2c(C)cccc2Cl)c1`: the GI50 in the assay on HCT-116 colon was 25.6 µM; with HOP-92 NSCLC it was 17.6 µM; in the assay on NCI-H522 lung it was 16 µM; in the assay on OVCAR-4 ovarian, 13.8 µM; in the assay on SF-268 CNS it was 24.8 µM; in the assay with SF-539 CNS it was 23.4 µM. Also, the GI50 in the assay on SK-MEL-28 melanoma was 20.5 µM; in the assay on SW-620 colon, 46 µM; in the assay with UACC-62 melanoma, 17.3 µM. In addition, the TGI is greater than 100 µM in the assay on HCT-116 colon; 41.4 µM in the assay with HOP-92 NSCLC; 38.3 µM with NCI-H522 lung; 30.9 µM in the assay with OVCAR-4 ovarian; 86.8 µM with SF-268 CNS; 70.4 µM in the assay on SF-539 CNS. For the same molecule, the TGI in the assay on SK-MEL-28 melanoma was 71.6 µM; in the assay on SW-620 colon, greater than 100 µM; in the assay on UACC-62 melanoma, 39.4 µM.

Take `O=C(O)C1CCN(Cc2oc(CO)cc(=O)c2O)C1` (stereo unspecified): the TGI with ACHN renal, in the assay with HCT-116 colon, in the assay on HOP-92 NSCLC, in the assay with NCI-H522 lung, with OVCAR-4 ovarian and in the assay on SF-268 CNS was greater than 100 µM throughout. The TGI in the assay with SK-MEL-28 melanoma, in the assay with SW-620 colon and in the assay on UACC-62 melanoma was greater than 100 µM in each case.

Turning to `O=C(O)/C=C/c1ccc[c]([Sb](=[O])([OH])[OH])c1`, the GI50 in the assay on ACHN renal, in the assay with HCT-116 colon, in the assay on HOP-92 NSCLC, with NCI-H522 lung, in the assay with OVCAR-4 ovarian and in the assay on SF-268 CNS was greater than 100 µM each time. For the same molecule, the GI50 in the assay on SK-MEL-28 melanoma, with SW-620 colon and in the assay with UACC-62 melanoma was greater than 100 µM each time. Moreover, the TGI with ACHN renal, with HCT-116 colon, with HOP-92 NSCLC, in the assay on NCI-H522 lung, with OVCAR-4 ovarian and with SF-268 CNS was greater than 100 µM each time. In addition, the TGI in the assay on SK-MEL-28 melanoma, with SW-620 colon and with UACC-62 melanoma was greater than 100 µM throughout.

Regarding `CC(C)(CN1CCOCC1)C(=O)/C=C/c1ccc(/C=C/C(=O)C(C)(C)CN2CCOCC2)cc1`, the TGI in the assay on ACHN renal stood at 4.92 µM; in the assay on HCT-116 colon, 1.62 µM; with HOP-92 NSCLC it was 6.49 µM; with NCI-H522 lung, 0.928 µM; in the assay with OVCAR-4 ovarian, 2.4 µM; with SF-539 CNS, 3.69 µM. The molecule further had a TGI in the assay on UACC-62 melanoma of 2.98 µM.

Consider `Nc1ncnc2c1c(-c1ccc(Oc3ccccc3)cc1)nn2C[C@H]1SSC[C@@H]1O`, for which the GI50 with ACHN renal was 0.482 µM; with HCT-116 colon it was 0.332 µM; in the assay with HOP-92 NSCLC, 1.62 µM; in the assay on NCI-H522 lung it was 3.85 µM; in the assay on OVCAR-4 ovarian, 1.44 µM; in the assay on SF-539 CNS it was 1.41 µM. For the same molecule, the GI50 in the assay with SK-MEL-28 melanoma is 0.147 µM; in the assay with UACC-62 melanoma it was 0.276 µM. For the same molecule, the TGI in the assay with ACHN renal was 9.3 µM; with HCT-116 colon, 12.3 µM; in the assay on HOP-92 NSCLC, 7.15 µM; in the assay on NCI-H522 lung, 14 µM; in the assay with OVCAR-4 ovarian, 19.8 µM; with SF-539 CNS, 12 µM. Besides, the results for the TGI in the assay with SK-MEL-28 melanoma and in the assay on UACC-62 melanoma were 0.403 µM and 0.939 µM, respectively.

Regarding `O=c1nc(NC(c2ccccc2)(c2ccccc2)c2ccccc2)ccn1CCCl`, the TGI stood at 99 µM in the assay with ACHN renal; 37.1 µM with HCT-116 colon; 27.6 µM in the assay with HOP-92 NSCLC; 41.4 µM in the assay on NCI-H522 lung; 53.1 µM in the assay with OVCAR-4 ovarian; 34.1 µM in the assay on SF-268 CNS. Further, the TGI stood at 31.7 µM in the assay on SF-539 CNS, 28.6 µM in the assay with SK-MEL-28 melanoma and 48.6 µM in the assay on SW-620 colon.

Turning to `Clc1ccccc1[C@@H]1C[C@@H]2Cc3cc(Br)c4ccccc4c3N1O2`, the GI50 in the assay with ACHN renal is 5.62 µM; in the assay with HCT-116 colon, 4.1 µM; in the assay on HOP-92 NSCLC it was 3.07 µM; in the assay with NCI-H522 lung, 2.31 µM; in the assay on SF-268 CNS it was 5.02 µM; in the assay on SF-539 CNS it was 3.04 µM. The GI50 in the assay with SK-MEL-28 melanoma was 6.92 µM; in the assay with SW-620 colon it was 3.69 µM; in the assay with UACC-62 melanoma, 4.29 µM. In addition, the TGI with ACHN renal was greater than 100 µM; in the assay with HCT-116 colon it was greater than 100 µM; in the assay on HOP-92 NSCLC, 35.6 µM; in the assay with NCI-H522 lung, 6.51 µM; in the assay on SF-268 CNS, greater than 100 µM; in the assay with SF-539 CNS it was greater than 100 µM. Further, the TGI in the assay on SK-MEL-28 melanoma, in the assay with SW-620 colon and in the assay on UACC-62 melanoma was greater than 100 µM in each case.

For `CC/C=C\C[C@H](O)C/C=C1/C(=O)C=C[C@@H]1C/C=C\CCCC(=O)OC(C)C`, the GI50 with ACHN renal is 1.88 µM; in the assay on HCT-116 colon, 0.245 µM; in the assay with HOP-92 NSCLC it was 2.25 µM; in the assay with NCI-H522 lung, 1.25 µM; in the assay on OVCAR-4 ovarian, 2.92 µM; in the assay with SF-268 CNS, 2 µM. Besides, the GI50 in the assay with SK-MEL-28 melanoma is 1.41 µM; in the assay on SW-620 colon it was 0.572 µM; with UACC-62 melanoma it was 1.37 µM. For the same molecule, the TGI in the assay with ACHN renal was found to be 3.79 µM; with HCT-116 colon, 0.64 µM; with HOP-92 NSCLC it was 4.88 µM; in the assay with NCI-H522 lung it was 2.88 µM; in the assay with OVCAR-4 ovarian, 14.4 µM; in the assay with SF-268 CNS it was 6.31 µM. The TGI was 3.05 µM with SK-MEL-28 melanoma, 2.32 µM with SW-620 colon and 3.16 µM in the assay with UACC-62 melanoma.
